Reference: patent publication US11180504B2 (ORCHID PHARMA LTD., priority 2016, dated 2021)
Converted amounts (≈) assume the structure as drawn.

How the values were obtained:
[1] = system: carbapenemase producing K. pneumoniae; experiment: MIC by broth micro-dilution (CLSI), carbapenemase producing K. pneumoniae; format: cell-based, Klebsiella pneumoniae; conditions: Klebsiella pneumoniae, ATCCBAA1705, KPC-2 K. pneumoniae ATCC BAA-1705; read-out: MIC
[2] = system: extended spectrum β lactamase (ESBL) SHV18 producing Klebsiella pneumoniae; experiment: MIC by broth micro-dilution (CLSI), ESBL SHV18 producing K. pneumoniae; format: cell-based; conditions: Klebsiella pneumoniae, ATCC700603, 22 h, ESBL +ve (SHV-18) K. pneumoniae ATCC700603; read-out: MIC
[3] = system: methicillin-sensitive Staphylococcus aureus; experiment: MIC by broth micro-dilution (CLSI), methicillin-sensitive S. aureus; format: cell-based; conditions: Staphylococcus aureus, ATCC 29213 / MSSA, MSSA S. aureus ATCC29213; read-out: MIC
[4] = system: carbapenem sensitive Pseudomonas aeruginosa; experiment: MIC by broth micro-dilution (CLSI), carbapenem sensitive P. aeruginosa; format: cell-based; conditions: Pseudomonas aeruginosa, ATCC27853, Meropenem susceptible P. aeruginosa ATCC27853; read-out: MIC
[5] = system: carbapenem sensitive Escherichia coli; experiment: MIC by broth micro-dilution (CLSI), carbapenem sensitive E. coli; format: cell-based; conditions: Escherichia coli, ATCC25922, ESBL −ve E. coli ATCC25922; read-out: MIC

Row | Compound | MIC [1] | MIC [2] | MIC [3] | MIC [4] | MIC [5]
1 | C[C@@H](NC(=O)C(F)F)[C@H]1C(=O)N2C(C(=O)O)=C(S[C@@H]3CN[C@H](C(=O)N4C[C@@H](O)[C@@H](N)C4)C3)[C@H](C)[C@H]12 [Example 213] | 4 µg/mL (≈ 7.73 µM) | 2 µg/mL (≈ 3.86 µM) | 1 µg/mL (≈ 1.93 µM) | 8 µg/mL (≈ 15.5 µM) | 0.5 µg/mL (≈ 0.966 µM)
2 | CNCC(=O)N[C@H](C)[C@H]1C(=O)N2C(C(=O)O)=C(S[C@@H]3CN[C@H](C(=O)N4C[C@@H](N)C[C@H]4CNS(N)(=O)=O)C3)[C@H](C)[C@H]12 [Example 216] | 4 µg/mL (≈ 6.64 µM) | 16 µg/mL (≈ 26.5 µM) | 32 µg/mL (≈ 53.1 µM) | 4 µg/mL (≈ 6.64 µM) | 1 µg/mL (≈ 1.66 µM)
3 | C[C@@H](NC(=O)C(F)F)[C@H]1C(=O)N2C(C(=O)O)=C(S[C@@H]3CN[C@H](C(=O)N4CC[C@@H](CN)C4)C3)[C@H](C)[C@H]12 [Example 219] | 4 µg/mL (≈ 7.76 µM) | 4 µg/mL (≈ 7.76 µM) | 2 µg/mL (≈ 3.88 µM) | 4 µg/mL (≈ 7.76 µM) | 1 µg/mL (≈ 1.94 µM)
4 | C[C@@H](NC(=O)[C@@H]1CCCN1)[C@H]1C(=O)N2C(C(=O)O)=C(S[C@@H]3CN[C@H](CNS(N)(=O)=O)C3)[C@H](C)[C@H]12 [Example 225] | 2 µg/mL (≈ 3.87 µM) | 32 µg/mL (≈ 61.9 µM) | 16 µg/mL (≈ 31 µM) | 64 µg/mL (≈ 124 µM) | 1 µg/mL (≈ 1.94 µM)
5 | C[C@@H](NC(=O)[C@H]1CCCN1)[C@H]1C(=O)N2C(C(=O)O)=C(S[C@@H]3CN[C@H](CNS(N)(=O)=O)C3)[C@H](C)[C@H]12 [Example 226] | 8 µg/mL (≈ 15.5 µM) | 32 µg/mL (≈ 61.9 µM) | 32 µg/mL (≈ 61.9 µM) | 64 µg/mL (≈ 124 µM) | 1 µg/mL (≈ 1.94 µM)
6 | C[C@@H](NC(=O)[C@H]1CCCN1)[C@H]1C(=O)N2C(C(=O)O)=C(S[C@@H]3CN[C@H](C(=O)N(C)C)C3)[C@H](C)[C@H]12 [Example 227] | 4 µg/mL (≈ 8.34 µM) | 8 µg/mL (≈ 16.7 µM) | 64 µg/mL (≈ 133 µM) | 32 µg/mL (≈ 66.7 µM) | 2 µg/mL (≈ 4.17 µM)
7 | C[C@@H](NC(=O)[C@@H]1CCCN1)[C@H]1C(=O)N2C(C(=O)O)=C(S[C@@H]3CN[C@H](C(=O)N(C)C)C3)[C@H](C)[C@H]12 [Example 228] | 8 µg/mL (≈ 16.7 µM) | 4 µg/mL (≈ 8.34 µM) | 64 µg/mL (≈ 133 µM) | 64 µg/mL (≈ 133 µM) | 1 µg/mL (≈ 2.09 µM)
8 | C[C@@H](NC(=O)CN(C)C=N)[C@H]1C(=O)N2C(C(=O)O)=C(S[C@@H]3CN[C@H](C(=O)N4CC[C@@H](N)C4)C3)[C@H](C)[C@H]12 [Example 229] | 64 µg/mL (≈ 123 µM) | 64 µg/mL (≈ 123 µM) | 128 µg/mL (≈ 245 µM) | 32 µg/mL (≈ 61.3 µM) | 16 µg/mL (≈ 30.7 µM)
9 | C[C@@H](NC(=O)CN(C)C(=N)N)[C@H]1C(=O)N2C(C(=O)O)=C(S[C@@H]3CN[C@H](C(=O)N4CC[C@@H](N)C4)C3)[C@H](C)[C@H]12 [Example 230] | 4 µg/mL (≈ 7.45 µM) | 8 µg/mL (≈ 14.9 µM) | 32 µg/mL (≈ 59.6 µM) | 8 µg/mL (≈ 14.9 µM) | 1 µg/mL (≈ 1.86 µM)
10 | C[C@@H](NC(=O)CN(C)C(=N)N)[C@H]1C(=O)N2C(C(=O)O)=C(S[C@@H]3CN[C@H](C(=O)N(C)C)C3)[C@H](C)[C@H]12 [Example 231] | 2 µg/mL (≈ 4.04 µM) | 4 µg/mL (≈ 8.07 µM) | 32 µg/mL (≈ 64.6 µM) | 16 µg/mL (≈ 32.3 µM) | 1 µg/mL (≈ 2.02 µM)
11 | COCc1cn([C@H](C)[C@H]2C(=O)N3C(C(=O)O)=C(S[C@@H]4CN[C@H](C(=O)N5CC[C@@H](N)C5)C4)[C@H](C)[C@H]23)nn1 [Example 232] | 8 µg/mL (≈ 15.4 µM) | 8 µg/mL (≈ 15.4 µM) | 2 µg/mL (≈ 3.85 µM) | > 128 µg/mL | 2 µg/mL (≈ 3.85 µM)
12 | COCc1cn([C@H](C)[C@H]2C(=O)N3C(C(=O)O)=C(S[C@@H]4CN[C@H](C(=O)N(C)C)C4)[C@H](C)[C@H]23)nn1 [Example 233] | 4 µg/mL (≈ 8.36 µM) | 4 µg/mL (≈ 8.36 µM) | 4 µg/mL (≈ 8.36 µM) | > 128 µg/mL | 1 µg/mL (≈ 2.09 µM)
13 | COCc1cn([C@H](C)[C@H]2C(=O)N3C(C(=O)O)=C(S[C@@H]4CN[C@H](CNS(N)(=O)=O)C4)[C@H](C)[C@H]23)nn1 [Example 234] | 4 µg/mL (≈ 7.76 µM) | 4 µg/mL (≈ 7.76 µM) | 0.5 µg/mL (≈ 0.97 µM) | > 128 µg/mL | 0.5 µg/mL (≈ 0.97 µM)

Now from value to compound:

Row | MIC [1] | MIC [2] | MIC [3] | MIC [4] | MIC [5] | Compound
14 | 16 µg/mL (≈ 32.2 µM) | 32 µg/mL (≈ 64.3 µM) | 32 µg/mL (≈ 64.3 µM) | > 128 µg/mL | 4 µg/mL (≈ 8.04 µM) | CNCC(=O)N[C@H](C)[C@H]1C(=O)N2C(C(=O)O)=C(S[C@@H]3CN[C@H](C(=O)N4CC[C@H](F)C4)C3)[C@H](C)[C@H]12 [Example 214]
15 | 8 µg/mL (≈ 16.1 µM) | 32 µg/mL (≈ 64.3 µM) | 8 µg/mL (≈ 16.1 µM) | > 128 µg/mL | 2 µg/mL (≈ 4.02 µM) | CNCC(=O)N[C@H](C)[C@H]1C(=O)N2C(C(=O)O)=C(S[C@@H]3CN[C@H](C(=O)N4CC[C@@H](F)C4)C3)[C@H](C)[C@H]12 [Example 215]
16 | 1 µg/mL (≈ 1.95 µM) | 1 µg/mL (≈ 1.95 µM) | 16 µg/mL (≈ 31.2 µM) | 2 µg/mL (≈ 3.9 µM) | 0.5 µg/mL (≈ 0.975 µM) | CNCC(=O)N[C@H](C)[C@H]1C(=O)N2C(C(=O)O)=C(S[C@@H]3CN[C@H](C(=O)N4C[C@H](N)[C@@H](F)C4)C3)[C@H](C)[C@H]12 [Example 217]
17 | 2 µg/mL (≈ 3.92 µM) | 2 µg/mL (≈ 3.92 µM) | 16 µg/mL (≈ 31.3 µM) | 2 µg/mL (≈ 3.92 µM) | 1 µg/mL (≈ 1.96 µM) | CNCC(=O)N[C@H](C)[C@H]1C(=O)N2C(C(=O)O)=C(S[C@@H]3CN[C@H](C(=O)N4C[C@@H](O)[C@@H](N)C4)C3)[C@H](C)[C@H]12 [Example 218]
18 | 2 µg/mL (≈ 3.93 µM) | 2 µg/mL (≈ 3.93 µM) | 32 µg/mL (≈ 62.9 µM) | 2 µg/mL (≈ 3.93 µM) | 1 µg/mL (≈ 1.97 µM) | CNCC(=O)N[C@H](C)[C@H]1C(=O)N2C(C(=O)O)=C(S[C@@H]3CN[C@H](C(=O)N4CC[C@@H](CN)C4)C3)[C@H](C)[C@H]12 [Example 220]
19 | 2 µg/mL (≈ 3.72 µM) | 2 µg/mL (≈ 3.72 µM) | 32 µg/mL (≈ 59.5 µM) | 4 µg/mL (≈ 7.44 µM) | 2 µg/mL (≈ 3.72 µM) | CNCC(=O)N[C@H](C)[C@H]1C(=O)N2C(C(=O)O)=C(S[C@@H]3CN[C@H](C(=O)N4CCN(CCN)CC4)C3)[C@H](C)[C@H]12 [Example 221]
20 | 4 µg/mL | 8 µg/mL | 64 µg/mL | 8 µg/mL | 2 µg/mL | CNCC(=O)N[C@H](C)[C@H]1C(=O)N2C(C(=O)O)=C(S[C@@H]3CN[C@H](C(=O)N4CC[N+](C)(CCN)CC4)C3)[C@H](C)[C@H]12 [Example 222]
21 | 2 µg/mL (≈ 3.73 µM) | 4 µg/mL (≈ 7.45 µM) | 8 µg/mL (≈ 14.9 µM) | 2 µg/mL (≈ 3.73 µM) | 1 µg/mL (≈ 1.86 µM) | CNCC(=O)N[C@H](C)[C@H]1C(=O)N2C(C(=O)O)=C(S[C@@H]3CN[C@H](C(=O)N4CCN(C(=N)N)CC4)C3)[C@H](C)[C@H]12 [Example 361, (4R,5S,6R)-3-((3S,5S)-5-(4-carbamimidoylpiperazine-1-carbonyl)pyrrolidin-3-ylthio)-4-methyl-6-((R)-1-(2-(methylamino)acetamido)ethyl)-7-oxo-1-azabicyclo[3.2.0]hept-2-ene-2-carboxylic acid]
